# In patent US7572606B1 (Nereus Pharmaceuticals, Inc., priority 2005, dated 2009):
# Values joined by “and” are separate entries in the source; they are usually repeats but may differ in a detail not shown here. Equal values may be shown once. Read-outs that look alike come from different tables or passages of the source.
# How the values were obtained:
# [1] = molecular target: T1, trypsin-like activity of rabbit muscle 20S proteasome (Oryctolagus cuniculus, UniProt G1SWK8); assay: In vitro inhibition of 20S proteasome, Boc-LRR-AMC; type: biochemical; conditions: under the conditions tested
# T1 construct: EC50 Trypsin-like; other: purified rabbit 20S proteasome, Boc-LRR-AMC; other: under the conditions tested
# T1 sequence (G1SWK8 1-271): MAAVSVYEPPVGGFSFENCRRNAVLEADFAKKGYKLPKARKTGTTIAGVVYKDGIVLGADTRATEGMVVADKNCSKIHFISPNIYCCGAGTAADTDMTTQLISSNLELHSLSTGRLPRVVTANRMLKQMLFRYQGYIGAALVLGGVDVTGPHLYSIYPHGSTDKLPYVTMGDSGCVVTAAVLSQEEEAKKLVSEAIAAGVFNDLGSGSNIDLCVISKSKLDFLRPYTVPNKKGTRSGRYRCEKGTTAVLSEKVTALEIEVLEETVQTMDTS
# [2] = tested on: NF-κB-mediated luciferase activity in HEK293 NF-κB/Luc cells; assay: NF-κB-mediated luciferase reporter gene assay; type: cell-based, human; conditions: pretreatment of NF-κB/Luc 293 cells
# Protocol: The HEK293 NF-κB/luciferase reporter cell line is a derivative of the human embryonic kidney cell line (ATCC; CRL-1573) and carries a luciferase reporter gene under the regulation of 5×NF-κB binding sites. […] When performing the luciferase assay, the DMEM basal medium was replaced with phenol-red free DMEM basal medium and the G418 was omitted.
# For NF-κB-mediated luciferase assays, HEK293 NF-κB/luciferase cells were seeded at 1.5×10^4 cells/well in 90 μl phenol-red free DMEM complete medium into Corning 3917 white opaque-bottom tissue culture plates. For Formulae II-2, II-4, II-5A and II-18, a 400 μM starting dilution was made in 100% DMSO and this dilution was used to generate an 8-point half log dilution series. […] For formula II-20, a 2.5 mM or 8 mM starting dilution was made in 100% DMSO and the final test concentrations ranged from 6.3 μM to 2.0 nM or 20 μM to 6.3 nM respectively. The plates were returned to the incubator for 1 hour. After 1 hr pretreatment, 10 μl of a 50 ng/ml TNF-α solution, prepared in the phenol-red free DMEM medium was added, and the plates were incubated for an additional 6 hours.
# At the end of the TNF-α stimulation, 100 μl of Steady Lite HTS luciferase reagent (Packard Bioscience) was added to each well and the plates were left undisturbed for 10 min at room temperature before measuring the luciferase activity. The relative luciferase units (RLU) were measured by using a Fusion microplate fluorometer (Packard Bioscience).
# NF-κB inducible luciferase activity was measured at 6 hours.
# [3] = molecular target: caspase-like (PGPH) activity of rabbit muscle 20S proteasome (Oryctolagus cuniculus, UniProt A0A5F9DQW2); assay: In vitro inhibition of 20S proteasome, Z-LLE-AMC; conditions: purified rabbit 20S proteasome, Z-LLE-AMC
# [4] = tested on: 20S proteasome chymotrypsin-like activity in RPMI 8226 cells; assay: Chymotrypsin-like activity of 20S proteasomes in treated cells; type: cell-based, human; conditions: 1 hr, mean ± SD, n = 3
# Protocol: RPMI 8226 (ATCC, CCL-155), the human multiple myeloma cell line, was cultured in RPMI 1640 medium supplemented with 2 mM L-glutamine, 100 units/ml penicillin, 100 μg/ml streptomycin, 1 mM sodium pyruvate and 10% heat inactivated fetal bovine serum at 37° C., 5% CO2 and 95% humidified air. […] DMSO was used as the vehicle control at a final concentration of 0.1%. Following 1 hr incubation of RMPI 8226 cells with the compounds, the cells were pelleted by centrifugation at 2,000 rpm for 10 sec at room temperature and washed 3× with ice-cold 1×Dulbecco's Phosphate-Buffered Saline (DPBS, Mediatech, Herndon, Va.). DPBS washed cells were lysed on ice for 15 min in lysis buffer (20 mM HEPES, 0.5 mM EDTA, 0.05% Triton X-100, pH 7.3) supplemented with protease inhibitor cocktail (Roche Diagnostics, Indianapolis, Ind.). Cell debris was pelleted by centrifugation at 14,000 rpm for 10 min, 4° C. and supernatants (=cell lysates) were transferred to a new tube. Protein concentration was determined by the BCA protein assay kit (Pierce Biotechnology, Rockford, Ill.). […] The total amount of protein used for each assay was 20 μg. The final concentration of Suc-LLVY-AMC and DMSO was 20 μM and 0.2%, respectively.
# [5] = read-out: EC50 Caspase-like (PGPH)
# Sequence of caspase-like (PGPH) activity of rabbit muscle 20S proteasome (A0A5F9DQW2 1-212): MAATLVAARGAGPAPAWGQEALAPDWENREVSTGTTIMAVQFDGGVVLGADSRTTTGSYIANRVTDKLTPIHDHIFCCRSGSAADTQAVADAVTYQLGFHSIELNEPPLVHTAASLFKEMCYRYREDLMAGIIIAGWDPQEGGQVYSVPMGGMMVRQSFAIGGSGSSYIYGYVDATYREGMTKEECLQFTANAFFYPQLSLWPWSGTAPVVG
SMILES,inhibition of the trypsin-like activity of the 20S proteasome [1],luciferase activity upon TNF-α stimulation [2],EC50 ([3]; read-out: EC50 Caspase-like),"EC50 [3, 5]",other results
CCC(=O)OCC[C@H]1C(=O)N[C@@]2([C@@H](O)[C@@H]3C=CCCC3)C(=O)O[C@@]12C [Formula II-22],able to inhibit the trypsin-like activity,dose-dependent decrease of luciferase activity,1400 nM,,
COC(=O)CCSC(=O)C1(C(O)C2C=CCCC2)NC(=O)C2CCOC21C (centres unmarked) [Formula VI-1A],able to inhibit the trypsin-like activity,,7900 nM and 8700 nM,,
C[C@@]12OC(=O)[C@]1([C@@H](O)[C@@H]1C=CCCC1)NC(=O)[C@@H]2CCN=[N+]=[N-] [Formula II-29],able to inhibit the trypsin-like activity,dose-dependent decrease of luciferase activity,,535 nM and 520 nM,
C[C@@]12OC(=O)[C@]1([C@@H](O)[C@@H]1C=CCCC1)NC(=O)[C@@H]2CCO [Formula II-21],able to inhibit the trypsin-like activity,dose-dependent decrease of luciferase activity,2300 nM,2580 nM and 2330 nM,
CC12OC(=O)C1(C(=O)C1C=CCCC1)NC(=O)C2CCCl (centres unmarked) [Formula II-13C],able to inhibit the trypsin-like activity,,> 20000 nM,,
COC(=O)CCSC(=O)[C@]1([C@@H](O)[C@@H]2C=CCCC2)NC(=O)[C@H](CCCl)[C@]1(C)O [Formula II-44],able to inhibit the trypsin-like activity,dose-dependent decrease of luciferase activity,1400 nM,,
C[C@@]12OC(=O)[C@]1([C@@H](O)[C@@H]1C=CCCC1)NC(=O)[C@H]2CCCl [Formula II-26],able to inhibit the trypsin-like activity,dose-dependent decrease of luciferase activity,,,
C[C@@H]1C(=O)N[C@@]2([C@@H](O)[C@@H]3C=CCCC3)C(=O)O[C@@]12C [Formula II-28],,,> 20000 nM,,
CCC[C@H]1C(=O)N[C@@]2([C@@H](O)[C@@H]3C=CCCC3)C(=O)O[C@@]12C [Formula II-30],able to inhibit the trypsin-like activity,dose-dependent decrease of luciferase activity,1300 nM,956 nM,
"CC(C)[C@H](O)[C@@]12NC(=O)[C@H](C)[C@@H]1OC2=O [Omuralide, reference compound]",,,,,"% inhibition of the chymotrypsin-like activity of 20S proteasomes in RPMI 8226 cell lysates ([4]; 1 nM): 5 ± 9%; % inhibition of the chymotrypsin-like activity of 20S proteasomes in RPMI 8226 cell lysates ([4]; 5 nM): 8 ± 9%; % inhibition of the chymotrypsin-like activity of 20S proteasomes in RPMI 8226 cell lysates ([4]; 10 nM): 4 ± 9%; % inhibition of the chymotrypsin-like activity of 20S proteasomes in RPMI 8226 cell lysates ([4]; 50 nM): 17 ± 11%; % inhibition of the chymotrypsin-like activity of 20S proteasomes in RPMI 8226 cell lysates ([4]; 100 nM): 32±8%; % inhibition of the chymotrypsin-like activity of 20S proteasomes in RPMI 8226 cell lysates ([4]; 500 nM): 68 ± 11%; % inhibition of the chymotrypsin-like activity of 20S proteasomes in RPMI 8226 cell lysates ([4]; 1,000 nM): 80 ± 8%; % inhibition of the chymotrypsin-like activity of 20S proteasomes in RPMI 8226 cell lysates ([4]; 10,000 nM): 93 ± 1%"
